Results on 17 compounds are retold here after patent US12215111B2, “Imidazopyridazine IL-17 inhibitor compounds” (Janssen Pharmaceutica NV, priority 2021, dated 2025).

The subject of assay [1] is IL-17A-induced G-CSF production in human normal keratinocyte (NHK). As to the kind of experiment: NHK assay: IL-17A-induced G-CSF production in normal human keratinocytes. The format is cell-based. Conditions: IL-17A 5 ng/mL, 24 h at 37° C., G-CSF by HTRF, simple average if tested more than once. The method, then: IL-17A acts directly on keratinocytes through binding to dimeric receptor IL-17RA/RC and drives the production of a number of inflammatory mediators known to be elevated in psoriasis lesional tissue. IL-17A small molecule inhibitors that block the IL-17A to interact with IL-17R would inhibit the IL-17A signaling in its targeted cells such as keratinocytes. The compound functional activity is evaluated for its impact on IL-17A-induced G-CSF production in human normal keratinocyte (NHK).
Adult normal human keratinocytes are cultured in keratinocyte growth medium (Lonza) in a flask till reaching ˜90% confluence, then cells are transferred to a 384-well plate at density of 3000-4000 cell/well. Recombinant human IL-17A (Gibco PHC9174) is pre-incubated with titrated compound or DMSO for 1 h at rt then added to the cell culture plate. The final concentration of IL-17A is 5 ng/mL and DMSO is 0.2%, in the culture containing 5% FBS. Cells are cultured/treated for 24 h at 37° C. Supernatants are collected and G-CSF production is measured through HTRF technology using Human G-CSF Kit (CisBio). G-CSF concentration was extrapolated from the standard curve and IC50 is determined using GraphPad Prism. Cell viability is also evaluated using CellTiter-Glo kit (Promega) and effect of compound on cell viability is compared to DMSO control.
For orientation: In TR-FRET formats the signal depends on donor and acceptor labels being close together.

For assay [2], the target named is IL-17A(FLAG-Tagged): IL-17RA(His-Tagged) (Homo sapiens, UniProt Q16552, K93Q). As to the kind of experiment: IL-17A(FLAG-tagged):IL-17RA(His-tagged) binding disruption Eu-HTRF assay, Protocol 1. Conditions: FLAG tagged IL-17A at 2× final concentration (2.5 nM); simple average if tested more than once. The text has this:
IL-17A(FLAG-Tagged): IL-17RA(His-Tagged) Binding Disruption Eu-HTRF Assay
An antibody directed against the FLAG tag of IL-17A (SEQ ID NO:1) is labeled with the HTRF donor chromophore (Europium-cryptate). IL-17A is present as a dimer that is “locked into” this quaternary structure due to the formation of loop-spanning […] disulfide bridges. The construct of IL-17RA used in the assay excludes the outer-membrane portion of the receptor and is fused to a C-terminal 10×His tag (SEQ ID NO:2). An antibody directed against the His tag of the IL-17RA chimera is labeled with the HTRF acceptor chromophore (“D2”). The fluorescence-resonance energy transfer (FRET) depends on the vicinity of the donor chromophore to the acceptor, and interruption of the binding between the IL-17A and IL-17RA causes the reduction/loss of FRET. Therefore, this assay allows to evaluate the compound effect on the binding IL-17A and IL-17RA by monitoring the fluorescence intensity of donor vs acceptor. The assay was run using either Protocol 1 or Protocol 2 described below.
Protocol 1: 40 nL of 2-fold serial diluted compound solution for total 22 dilution points is added into each well of a 1536-well, white, low-volume, non-binding plate (Greiner #782904), then 2 μl of FLAG tagged IL-17A at 2× final concentration (2.5 nM) in solution of PBS+0.01% Triton-X100 is added to each well. The assay plate is briefly centrifuged then incubated for 1 h at rt. A mixed solution is prepared containing 2×5 nM 10HIS×IL-17RA, 2×2.5 nM Eu-anti-FLAG (CISBIO), 2×5 nM D2-anti-HIS (CISBIO) in PBS+0.01% Triton-X100+200 mM Potassium Fluoride (Sigma 60238) and […] of mix is added to each well of the assay plate. The plate is briefly centrifuged then incubated for 2 h at rt. The HTRF intensities at the wavelength of donor (620 nm) and acceptor (665 nm) are measured using BMG Pherastar. The ratio between intensities at two wavelengths is calculated and plotted against the compound concentration and the data is fitted to a one-site competition model to yield IC50 of the compound.

Chain of UniProt Q16552 (Q16552 with tags, fused parts or gaps K93Q): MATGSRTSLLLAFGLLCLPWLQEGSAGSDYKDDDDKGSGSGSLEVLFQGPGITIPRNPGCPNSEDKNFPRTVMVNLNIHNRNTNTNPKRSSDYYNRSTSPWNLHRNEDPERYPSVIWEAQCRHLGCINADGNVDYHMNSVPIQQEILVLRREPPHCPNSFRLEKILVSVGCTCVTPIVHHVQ

As to `Cc1nonc1C(=O)N[C@H](c1cn2ncc(CN3C[C@@](C)(C(F)(F)F)NC3=O)cc2n1)C1CCC(F)(F)CC1` [Example 28, N—((S)—(4,4-Difluorocyclohexyl)(7-(((S)-4-methyl-2-oxo-4-(trifluoromethyl)imidazolidin-1-yl)methyl)imidazo[1,2-b]pyridazin-2-yl)methyl)-4-methyl-1,2,5-oxadiazole-3-carboxamide], the concentration for half-maximal inhibition (IC50) (as a rule, the concentration that gives 50% inhibition) in assay [1] (Homo sapiens, Keratinocyte) was < 4 µM.
For the compound `Cc1nonc1C(=O)N[C@H](c1cn2ncc([C@@H](C3CC3)N3CC(CC(F)(F)F)NC3=O)cc2n1)C1CCC(F)(F)CC1` (single isomer, unassigned) [Example 20, N—((S)-(7-((R)-Cyclopropyl((S*)-2-oxo-4-(2,2,2-trifluoroethyl)imidazolidin-1-yl)methyl)imidazo[1,2-b]pyridazin-2-yl)(4,4-difluorocyclohexyl)methyl)-4-methyl-1,2,5-oxadiazole-3-carboxamide], the concentration for half-maximal inhibition (IC50) in assay [1] and in assay [2] was < 4 µM each time.
For the compound `C[C@H]1CN(Cc2cnn3cc([C@@H](NC(=O)c4nonc4C4CC4)C4CCC(F)(F)CC4)nc3c2)C(=O)N1` [Example 4, 4-Cyclopropyl-N—((S)—(4,4-difluorocyclohexyl)(7-(((S)-4-methyl-2-oxoimidazolidin-1-yl)methyl)imidazo[1,2-b]pyridazin-2-yl)methyl)-1,2,5-oxadiazole-3-carboxamide], the IC50 in assay [1] (Homo sapiens, Keratinocyte) is < 4 µM; in assay [2], < 4 µM.
For `[2H]C1([2H])N([C@H](COC)c2cnn3cc([C@H](COC(C)(C)C(F)(F)F)NC(=O)c4nonc4C4CC4)nc3c2)C(=O)NC1([2H])C(F)(F)F` (stereo in doubt) [Example 34, 4-Cyclopropyl-N—((R)-1-(7-((S)-2-methoxy-1-((R)-2-oxo-4-(trifluoromethyl)imidazolidin-1-yl-4,5,5-d3)ethyl)imidazo[1,2-b]pyridazin-2-yl)-2-((1,1,1-trifluoro-2-methylpropan-2-yl)oxy)ethyl)-1,2,5-oxadiazole-3-carboxamide], the concentration for half-maximal inhibition (IC50) in assay [1] (Homo sapiens, Keratinocyte) is < 4 µM.
The same measure, in the same setting: in the case of `[2H]C1([2H])N([C@H](COC)c2cnn3cc([C@H](COC(C)(C)C(F)(F)F)NC(=O)c4nonc4C)nc3c2)C(=O)NC1([2H])C(F)(F)F` (stereo in doubt) [Example 35, N—((R)-1-(7-((S)-2-Methoxy-1-((R)-2-oxo-4-(trifluoromethyl)imidazolidin-1-yl-4,5,5-d3)ethyl)imidazo[1,2-b]pyridazin-2-yl)-2-((1,1,1-trifluoro-2-methylpropan-2-yl)oxy)ethyl)-4-methyl-1,2,5-oxadiazole-3-carboxamide] it was < 4 µM; in that of `COC[C@H](c1cnn2cc([C@H](COC(C)(C)C(F)(F)F)NC(=O)c3nonc3C)nc2c1)N1C[C@@](C)(C(F)(F)F)NC1=O` (single isomer, unassigned) [Example 30], < 4 µM.
Still for that read-out and setting: the value for `Cc1nonc1C(=O)N[C@H](c1cn2ncc([C@@H](C3CC3)N3CC4(CC4)NC3=O)cc2n1)C1CCC(F)(F)CC1` [Example 21, N—[(S)—[7-[(R)-Cyclopropyl-(6-oxo-5,7-diazaspiro[2.4]heptan-5-yl)methyl]imidazo[1,2-b]pyridazin-2-yl]-(4,4-difluorocyclohexyl)methyl]-4-methyl-1,2,5-oxadiazole-3-carboxamide] was < 4 µM; that for `[2H]C1([2H])[C@@H](C(F)(F)F)NC(=O)N1[C@H](COC)c1cnn2cc([C@H](COC(C)(C)C(F)(F)F)NC(=O)c3nonc3C3CC3)nc2c1` (relative stereo) [Example 16, 4-Cyclopropyl-N—((R)-1-(7-((S)-2-methoxy-1-((S*)-2-oxo-4-(trifluoromethyl)imidazolidin-1-yl-5,5-d2)ethyl)imidazo[1,2-b]pyridazin-2-yl)-2-(1,1,1-trifluoro-2-methylpropan-2-yl)oxy)ethyl)-1,2,5-oxadiazole-3-carboxamide] was < 4 µM.
For the compound `C[C@@]1(C(F)(F)F)CN(Cc2cnn3cc([C@@H](NC(=O)c4nonc4C4CC4)C4CCC(F)(F)CC4)nc3c2)C(=O)N1` [Example 29], the IC50 in assay [1] (Homo sapiens, Keratinocyte) is < 4 µM.
Same read-out and setting: in the case of `COC[C@H](c1cnn2cc([C@H](CC(C)(C)C(F)(F)F)NC(=O)c3ccnn3C(C)C)nc2c1)N1C[C@@H](C(F)(F)F)NC1=O` [Example 15, 1-Isopropyl-N—((S)-4,4,4-trifluoro-1-(7-((S)-2-methoxy-((S)-2-oxo-4-(trifluoromethyl)imidazolidin-1-yl)ethyl)imidazo[1,2-b]pyridazin-2-yl)-3,3-dimethylbutyl)-1H-pyrazole-5-carboxamide] it was < 4 µM; in that of `CC(C)n1nccc1C(=O)N[C@H](c1cn2ncc([C@H](COC3CC3)N3C[C@@H](C(F)(F)F)NC3=O)cc2n1)C1CCC(F)(F)CC1` (single isomer, unassigned) [Example 44], < 4 µM; in that of `COC[C@H](c1cnn2cc([C@H](CC(C)(C)C(F)(F)F)NC(=O)c3nonc3C3CC3)nc2c1)N1C[C@@H](C(F)(F)F)NC1=O` [Example 13, 4-Cyclopropyl-N—((S)-4,4,4-trifluoro-1-(7-((S)-2-methoxy-1-((S)-2-oxo-4-(trifluoromethyl)imidazolidin-1-yl)ethyl)imidazo[1,2-b]pyridazin-2-yl)-3,3-dimethylbutyl)-1,2,5-oxadiazole-3-carboxamide], < 4 µM.
On the same count and under the same terms, in the case of `COC[C@H](c1cnn2cc([C@H](CC(C)(C)C(F)(F)F)NC(=O)c3nonc3C)nc2c1)N1C[C@@H](C(F)(F)F)NC1=O` [Example 14, 4-Methyl-N—((S)-4,4,4-trifluoro-1-(7-((S)-2-methoxy-1-((S)-2-oxo-4-(trifluoromethyl)imidazolidin-1-yl)ethyl)imidazo[1,2-b]pyridazin-2-yl)-3,3-dimethylbutyl)-1,2,5-oxadiazole-3-carboxamide] it was < 4 µM; in that of `CC(C)(OC[C@H](NC(=O)c1nonc1C1CC1)c1cn2ncc(CN3C[C@@H](C(F)(F)F)NC3=O)cc2n1)C(F)(F)F` [Example 24], < 4 µM.
With `Cc1nonc1C(=O)N[C@@H](CCC(C)(C)C(F)(F)F)c1cn2ncc([C@@H](COC3CC3)N3C[C@@H](C(F)(F)F)NC3=O)cc2n1` [Example 38, N—((S)-1-(7-((S)-2-Cyclopropoxy-((S)-2-oxo-4-(trifluoromethyl)imidazolidin-1-yl)ethyl)imidazo[1,2-b]pyridazin-2-yl)-5,5,5-trifluoro-4,4-dimethylpentyl)-4-methyl-1,2,5-oxadiazole-3-carboxamide], the half-inhibitory concentration (IC50) in assay [1] (Homo sapiens, Keratinocyte) is < 4 µM.
Consider `COC[C@H](c1cnn2cc([C@H](COC(C)(C)C(F)(F)F)NC(=O)[C@@H]3C[C@H]3C(F)(F)F)nc2c1)N1C[C@@H](C(F)(F)F)NC1=O` (relative stereo) [Example 32, (1R*,2R*)—N—((R)-1-(7-((S)-2-Methoxy-((S)-2-oxo-4-(trifluoromethyl)imidazolidin-1-yl)ethyl)imidazo[1,2-b]pyridazin-2-yl)-2-(1,1,1-trifluoro-2-methylpropan-2-yl)oxy)ethyl)-2-(trifluoromethyl)cyclopropane-1-carboxamide], for which the IC50 in assay [1] (Homo sapiens, Keratinocyte) is < 4 µM.
Still for that read-out and setting: in the case of `CC(C)(CC[C@H](NC(=O)c1nonc1C1CC1)c1cn2ncc([C@@H](COC3CC3)N3C[C@@H](C(F)(F)F)NC3=O)cc2n1)C(F)(F)F` [Example 39, N—((S)-1-(7-((S)-2-Cyclopropoxy-((S)-2-oxo-4-(trifluoromethyl)imidazolidin-1-yl)ethyl)imidazo[1,2-b]pyridazin-2-yl)-5,5,5-trifluoro-4,4-dimethylpentyl)-4-cyclopropyl-1,2,5-oxadiazole-3-carboxamide] it was < 4 µM.
